Test results: US20250276066A1, “METHODS, COMPOSITIONS AND COMPOUNDS FOR TREATING AGE-RELATED DISEASES AND CONDITIONS” (GERO PTE. LTD., priority 2021, published 2025)
Like-named read-outs stand apart in the source and are kept apart here.

Experiments:
C. elegans = C. elegans lifespan screening (survival) assay; format: in vivo, Caenorhabditis elegans; settings: for Mean LS ext., %: mean lifespan extension vs control, doses (uM); for Mean LS*: mean lifespan, dose uM: Panobinostat 1, Entinostat 10, Topotecan 5, PI-103 10, PHA-793887 10, Triptolide 10, KU-0063794 10, Trichostatin A 2, control 22.2 d
Source text: • 1. […] Then, with the help of linear gene-wise regression, we identified the transcriptomic aging signature, the list of genes that have statistically significant association with age rescaled by lifespan (the first list). • 3. Genes in the aging signature that have positive correlation with age rescaled by lifespan are over-expressed in late life of the animals, and if a gene's correlation is negative its gene expression decreases with age. • 4. […] The identified aging signature represents a vector of the aging-related changes of gene expression. […] This was done by projecting out all gene expression changes along the aging signature. • 6. After that, by gene-wise linear regression, we identified the list of genes that had statistically significant correlation with lifespan of long-lived strains. That list represents the PI3K-null signature. Genes in the PI3K-null signature that have positive correlation with lifespan are over-expressed in long-lived strains, and vise versa, genes with negative correlations have lower gene expression levels in long-lived mutants with respect to the control lines. • 7. […] Therefore, we would affect the aging process and either slow-down it or reverse it. • 8. We combined those lists, and identified the lists of their human orthologs. • 9. The inhibition of these genes or/and the proteins translated from those genes in humans will also produce life-extending effects. • 10. The predictive value of the aging signature was previously experimentally tested in paper. Along the lines of paper, to test the predictive value of the PI3K-null signature, we identified novel life-extending pharmacological interventions by comparing this signatures with gene expression profile changes in response to pharmacologic perturbations from the Connectivity Map (CMAP) database. Using the PI3K-null signature, we predicted perturbagen-compounds opposing the transcriptomic signature distinguishing long-lived C. elegans mutant strains with a slow aging rate from short-lived strains with a fast aging rate (see Table […] and T1b). To eliminate the confounding effect of different biological ages of nematodes in experimental cohorts, we applied the algorithm developed earlier. From the top of predicted compounds, we selected 8 compounds for a follow-up lifespan screening in C. elegans assay (see Figure F1, Table T2). • 11. We successfully tested the selected compounds in C. elegans survival assay (see Figure F1, Table T2). All 8 compounds produced a significant lifespan extension effect (according to the Log-rank Mantel-Cox method, all results are with p<0.05). Therefore, we experimentally validated the PI3K-null signature's pipeline for the identification of new life-extending compounds. • 12. […] CDK7, CHEK2, CAPN1, CTSB, HSP90AB1, HSP90AA1, HSPA5, NFKB1, NPC1, PABPC1, ABCB11, ABCB1, PLK1, PLK3, ADRA2A, ADRA2C, ADRA2B, TUBB6, SENP8, SENP6, SENP7, MMP14, MMP13, MMP8, MMP3, MMP1, MAPKAPK2, CTSL, CTSK, CTSS, ATXN2, TBXAS1, CREBBP, PDGFRA, FLT4, FLT1, KDR, PDGFRB, FLT3, KIT, CSF1R, IKBKB, IKBKE, PGGT1B, FAAH, GFER, MAPK14, MAPK12, PRKAA1, ABCG2, ADAM17, BACE2, BACE1, TUBB6, CA7, CA2, CA1, CA5A, CA12, CA9, CA4, CTSB, FEN1, HDAC1, HDAC2, HDAC3, CBX1, SLC6A4, SLC6A2, SLC6A3, PPARD, PPARG, PPARA, PSEN2, HTR7, ADRA1B, SMN2, FYN, SRC, LCK, LYN, TARDBP, CLK2, CLK4, USP2, GBA, RECQL, BLM, WRN, CDK2, PRKAG3, TFPI, LTA4H, DPP7, BACE2, BACE1, CAPN1, CTSB, IGF1R, INSR, EYA2, HSPA5, NFKB1, TCF7L2, TARDBP, BRD4. • 13. […] Lifespan assays were conducted at 20° C., as described previously. Briefly, synchronous cultures were initiated by lysis of gravid hermaphrodites in alkaline hypochlorite. Worms were selected at the L4 larval stage, placed 50 worms per plate, and transferred at 1- to 2-day intervals onto fresh plates during days 1-7, and at 2- to 3-day intervals after that. […]

D. melanogaster = settings: cited from earlier work
CIA-induced DBA/1J mice = assay: Example 30: collagen-induced arthritis (CIA); format: in vivo; settings: 0.2 mg/kg
Caenorhabditis elegans = settings: not replicated in another study; cited from earlier work
mice given Doxorubicin = assay: Example 33: doxorubicin-induced liver damage (plasma AST); settings: mouse, in vivo
Description: Doxorubicin if administered by mice reduces total body weight and induces expression of FOXO4 foci and IL-6 in the liver.
On the indicated time points, whole blood samples are collected in a Microvette with Lithium Heparin (Sarstedt) for plasma separation and spun for 10 min at 4.6×g. The (clear) supernatant is transferred into regular 1.5 ml tubes and spun again for 5 min at 4.6×g. The supernatants are transferred again into 1.5 ml tubes, snap frozen in liquid N2 and stored at −80° C. [AST] is measured using an AST Activity Assay Kit (Sigma). The samples are incubated with 100 μl reaction mix in a 96 well plate and place at 37° C. The absorbance at 450 nm is determined after 2 minutes for baseline analysis and after 40 minutes for a final analysis. [Urea] is measured using a QuantiChrom Urea Assay Kit (Gentaur). The samples are incubated in 200 μl reaction mix for 10 minutes at room temperature before absorbance is measured at 520 nm. [Creatinine] is measured using Creatinine Assay Kit (Sigma). Samples are incubated with 50 μl reaction mix at 37° C. for 60 minutes and the absorbance is measured at 570 nm. Ratios comparing plasma values after treatment compared to baseline are determined and plotted as % over baseline in scatter plots.

[1] = patient; cited from earlier work

| SMILES | Mean LS ext., % (C. elegans) [%] | Mean LS* (C. elegans) [days] | further results |
| --- | --- | --- | --- |
| Nc1ccccc1NC(=O)c1ccc(CNC(=O)OCc2cccnc2)cc1 [Compound 2, Entinostat] | 8.6 | 24.1 | – |
| O=C(c1ccc(F)cc1)C1CCN(CCn2c(=O)[nH]c3ccccc3c2=O)CC1 [ketanserin] | – | – | lifespan (D. melanogaster; fixed-diet conditions): did not affect lifespan; lifespan (D. melanogaster; flies allowed to chose nutrients): increased lifespan |
| Oc1cccc(-c2nc(N3CCOCC3)c3oc4ncccc4c3n2)c1 [Compound 4, PI-103] | 8.6 | 24.1 | – |
| CC(C)CC(=O)Nc1[nH]nc2c1CN(C(=O)C1CCN(C)CC1)C2(C)C [Compound 5, PHA-793887] | 6.9 | 23.7 | – |
| Cc1[nH]c2ccccc2c1CCNCc1ccc(/C=C/C(=O)NO)cc1 [Compound 1, Panobinostat] | 8.1 | 24 | – |
| CC(C)[C@]12O[C@H]1[C@@H]1O[C@]13[C@]1(O[C@H]1C[C@H]1C4=C(CC[C@@]13C)C(=O)OC4)[C@@H]2O [Compound 6, Triptolide] | 10 | 24.4 | – |
| CC[C@@]1(O)C(=O)OCc2c1cc1n(c2=O)Cc2cc3c(CN(C)C)c(O)ccc3nc2-1 [Compound 3, Topotecan] | 9.7 | 24.3 | – |
| COc1ccc(-c2ccc3c(N4CCOCC4)nc(N4C[C@@H](C)O[C@@H](C)C4)nc3n2)cc1CO [Compound 7, KU-0063794] | 10.6 | 24.5 | – |
| CN(Cc1cnc2nc(N)nc(N)c2n1)c1ccc(C(=O)N[C@@H](CCC(=O)O)C(=O)O)cc1 [MTX, methotrexate] | – | – | development of arthritis (CIA-induced DBA/1J mice): strong inhibitory effect on the development of arthritis |
| CC(/C=C/C(=O)NO)=C\[C@@H](C)C(=O)c1ccc(N(C)C)cc1 [Compound 8, Trichostatin A] | 10 | 24.4 | – |
| CN1CCN2c3ccccc3Cc3ccccc3C2C1 (stereo not shown) [mianserin] | – | – | lifespan (prolongevity effect) (Caenorhabditis elegans): prolongevity effect |
| COc1cccc2c1C(=O)c1c(O)c3c(c(O)c1C2=O)C[C@@](O)(C(=O)CO)C[C@@H]3O[C@H]1C[C@H](N)[C@H](O)[C@H](C)O1 [Doxorubicin] | – | – | plasma levels of Aspartate Aminotransferase, AST (mice given Doxorubicin): strongly induce plasma levels of Aspartate Aminotransferase; total lifetime dose above which myocardial damage may lead to congestive heart failure [1]: exceeds 550 mg/m^2 |
